Laboratory results from patent publication US20100062078A1, “PHARMACEUTICAL COMPOSITION FOR TREATING CANCER AND THE SIGNALING PATHWAY THEREOF” (priority 2008, published 2010).

How the values were obtained:
Type in all cases: cell-based, human
p38 MAPK = test: Immunoblotting, phosphorylation in LNCap cells; details: LNCap pretreated 1 hour with inhibitor, then protoapigenone 1 hour
Description: The concentration of protein supernatant was further determined using the Bio-Rad protein assay kit (Bio-Rad Laboratories, Hercules, Calif.). Whole cell lysates were separated on polyacrylamide sodium dodecyl sulfate (SDS) gels and the proteins were transferred onto the nitrocellulose membrane. Proteins were detected sequentially by the specific primary antibodies, followed by peroxidase-conjugated secondary antibodies, and visualized by the Enhanced chemiluminescence detection system (Amersham, N.J.).

LNCap cells [1] = test: Protoapigenone-induced apoptosis with kinase inhibitor pretreatment
Experimental: Human prostate cancer cell line LNCap used in the present invention was purchased from ATCC, Manassas, Va. and was cultured in RPMI 1640 medium supplemented with 10% FBS and penicillin/streptomycin/amphotericin B. LNCap cells were treated with 2.5, 5 and 10 μM protoapigenone respectively and were analyzed. In some experiments, LNCap cells were treated with p38 mitogen-activated protein kinase (MAPK) inhibitor SB203580 or c-Jun NH2-terminal kinase (JNK) ½ inhibitor SP600125 for one hour before protoapigenone treatment.

LNCap cells [2] = test: Cell cycle analysis (PI flow cytometry); details: inhibitor pretreatment
Experimental: The ovarian cancer cells and the prostate cancer cells respectively were treated with protoapigenone at different concentrations (0, 2.5, 5 and 10 μM) for 24 hours and 6 hours (or 12 hours). These cells were harvested by trypsin and fixed with 70% ethanol for 1 hour, washed with phosphate buffered saline (PBS) twice, and resuspended in propidium iodide (PI)/RNase A solution for 30 minutes. In accordance with the mechanism of DNA stained with propidium iodide, the cell cycle and sub-G1 distribution were detected by the FACScan flow cytometry (Becton Dickinson, San Jose, Calif.), and data analysis was done with CellQuest software (BD Bioscience).

LNCap = test: XTT cell proliferation assay (growth inhibition); details: inhibitor pretreatment, then protoapigenone for 12 hours
Experimental: (§1) Cells were seeded at 7×10^3 per well in 96-well culture plates before treatment with different concentrations of protoapigenone for 12, 24 and/or 48 hours. Next, the cytotoxicity of protoapigenone was determined using XTT cell proliferation assay (Sigma, St. Louis, Mo.). The absorbance of wavelength at 490 nm (OD490) and 650 nm (OD650) were determined respectively by enzyme-linked immunosorbent assay (ELISA) reader, and 50% of inhibitory concentration (IC50) was calculated by the value of OD490-OD650. In addition, in order to evaluate the long-term effect, the cells were treated with different concentration of protoapigenone for 3 hours, then were incubated with fresh medium for 14 days so as to form colonies. Finally, the cells were stained with crystal violet and were observed under the microscope.

MDAH-2774 = test: XTT cell proliferation assay (cytotoxicity)
Experimental: as §1

Structure (SMILES) | protoapigenone-induced phosphorylation (activation) of p38 MAPK in presence of inhibitor (p38 MAPK) | protoapigenone-induced apoptotic percentage in presence of inhibitor (LNCap cells [1]) | effect of inhibitor on protoapigenone-induced S and G2/M phases arrest (LNCap cells [2]) | survival rate of LNCap cells vs cells only treated with protoapigenone (LNCap) | inhibition of cell growth (MDAH-2774; MDAH-2774, 5 μM cisplatin) | inhibition of cell growth (MDAH-2774; MDAH-2774, 10 μM cisplatin)
C[S+]([O-])c1ccc(-c2nc(-c3ccncc3)c(-c3ccc(F)cc3)[nH]2)cc1 (stereo not drawn) [SB203580, reference compound] | blocked | decreased | significantly attenuates | higher | – | –
N.N.[Cl][Pt][Cl] [cisplatin, cis-diamminedichloridoplatinum (II), reference compound] | – | – | – | – | 28.48% | 36.91%
